Experiments:
[1] = system: gastric emptying and intestinal motility; conditions: rat, ref AZD5069 Investigator Brochure (IB), cited from earlier work
CYP2C19 = system: CYP2C19; parameters: method as in AZD5069 Investigator Brochure (IB); conditions: at concentrations of up to 100 μmol/L; ref AZD5069 Investigator Brochure (IB); cited from earlier work
[2] = parameters: method as in AZD5069 Investigator Brochure (IB); conditions: human mass balance study NCT01332903; ref AZD5069 Investigator Brochure (IB); cited from earlier work
[3] = system: patients with ARSI-resistant mCRPC; test: Phase 1 trial of AZD5069 plus enzalutamide: antitumour activity (RECIST v.1.1, PSA, CTC count); type: in vivo, human
From the text: Patients needed to be on treatment for at least 12 weeks to be considered a responder. Thirteen patients had assessable measurable disease by Response Evaluation Criteria in Solid Tumors v.1.1. […] All patients classed as partial responders had radiologic progression-free survival of more than 6 months. […] Three of four patients classed as partial responders, for whom pre-treatment tissue biopsy was available for androgen receptor splice variant 7 (AR-V7) immunohistochemistry (IHC) including the patient who received only abiraterone previously, had tumour expressing AR-V7 protein.
Radiologic tumour responses were measured by computerized tomography of the thorax, abdomen and pelvis, bone scan, and, where indicated, whole-body magnetic resonance imaging, at baseline, once every 3 cycles, and then at the end of treatment if this was more than 8 weeks since the last scan. PSA and CTC count were measured at baseline, and then on day 1 of every cycle, and at the end of treatment. CTC counts were analysed using previously described methods.
Secondary endpoints were:(i) the rate of objective response, with objective response defined as confirmed soft tissue objective response by Response Evaluation Criteria in Solid Tumors v.1.1 in those with measurable disease, and/or PSA decline ≥50% confirmed 4 weeks or later, and/or CTC count conversion from ≥5 per 7.5 ml of blood at baseline to <5 per 7.5 ml of blood at nadir; (ii) pharmacokinetic parameters, including maximum concentration, area under the concentration–time curve; and (iii) pharmacodynamic changes including identifying patients whose blood NLR, neutrophil, and intratumour myeloid cell density decrease. Exploratory endpoints included blood cytokine levels and evaluation of tumour molecular profile on response.
Sample size was chosen pragmatically. According to the rule-based 3 + 3 design, which guided dose-escalation decisions, the cohort size was three patients and skipping of dose levels was not allowed. Patients who completed the DLT period or experienced a DLT during the DLT period were considered part of the evaluable population. Patients who received at least one dose of study drug were considered part of the safety population. To be evaluable for response, the patient must have met the eligibility criteria, received at least three cycles of trial medication, and have had baseline assessment of disease. Comparisons of baseline characteristics between patients classed as responders and those classed as non-responders were carried out using the two-sided Mann–Whitney U-test. Comparisons of paired pharmacokinetic and pharmacodynamic parameters were carried out using the two-sided paired Wilcoxon signed-rank test. Safety variables and pharmacokinetic and pharmacodynamic endpoints were summarized descriptively.

[4] = first partial responder at AZD5069 160 mg BD, at nadir (3–4 months)
[5] = partial responder at AZD5069 80 mg BD
[6] = partial responder at AZD5069 120 mg BD
[7] = second responder at AZD5069 160 mg BD

## C[C@@H](Oc1cc(NS(=O)(=O)N2CCC2)nc(SCc2cccc(F)c2F)n1)[C@@H](O)CO [AZD5069]
[1]; gastric emptying and intestinal motility
  No Observed Effect Level (NOEL): 60 mg/kg
[1]
  dose level with inhibition of gastric emptying and intestinal motility: 350 mg/kg
CYP2C19
  inhibition of CYP2C19: not an inhibitor
[2]
  phase II glucose conjugate metabolite in urine: < 5.3 % of dose
[3]; 21 response-evaluable patients, all dose levels, plus enzalutamide
  objective partial response rate (RECIST v.1.1 ≥30% decrease, PSA decline ≥50% and/or CTC conversion): 24%
[3]; Patient 4 (as per Fig. 4a), C1D1
  CTC count: 5 CTC/7.5 ml blood
[3]; Patient 4, C1D15
  CTC count: 2 CTC/7.5 ml blood
[3]; Patient 4, C2D1
  CTC count: 1 CTC/7.5 ml blood
[3]; Patient 4, C3D1
  CTC count: 5 CTC/7.5 ml blood
[3]; Patient 4, C4D1
  CTC count: 3 CTC/7.5 ml blood
[3]; Patient 4, C5D1
  CTC count: 5 CTC/7.5 ml blood
[3]; Patient 4, C6D1
  CTC count: 5 CTC/7.5 ml blood
[3]; Patient 4, C7D1
  CTC count: 3 CTC/7.5 ml blood
[3]; Patient 4, C8D1
  CTC count: 12 CTC/7.5 ml blood
[3]; Patient 4, C9D1
  CTC count: 14 CTC/7.5 ml blood
[3]; Patient 4, C10D1
  CTC count: 33 CTC/7.5 ml blood
[3]; Patient 4, C11D1
  CTC count: 34 CTC/7.5 ml blood
[3]; Patient 4, C12D1
  CTC count: 57 CTC/7.5 ml blood
[3]; Patient 4, C13D1
  CTC count: 52 CTC/7.5 ml blood
[3]; Patient 4, C14D1
  CTC count: 53 CTC/7.5 ml blood
[3]; Patient 4, C15D1
  CTC count: 96 CTC/7.5 ml blood
[3]; Patient 4, C16D1
  CTC count: 235 CTC/7.5 ml blood
[3]; Patient 4, C17D1
  CTC count: 86 CTC/7.5 ml blood
[3]; Patient 4, C18D1
  CTC count: 97 CTC/7.5 ml blood
[3]; Patient 4, Treatment Discontinuation
  CTC count: 119 CTC/7.5 ml blood
[3]; Patient 10 (as per Fig. 4a), C1D1
  CTC count: 39 CTC/7.5 ml blood
[3]; Patient 10, C1D15
  CTC count: 26 CTC/7.5 ml blood
[3]; Patient 10, C2D1
  CTC count: 19 CTC/7.5 ml blood
[3]; Patient 10, C3D1
  CTC count: 0 CTC/7.5 ml blood
[3]; Patient 10, C4D1
  CTC count: 10 CTC/7.5 ml blood
[3]; Patient 10, C5D1
  CTC count: 46 CTC/7.5 ml blood
[3]; Patient 10, C9D1
  CTC count: 101 CTC/7.5 ml blood
[3]; Patient 10, Treatment Discontinuation
  CTC count: 129 CTC/7.5 ml blood
[3]; all five partial responders
  radiologic progression-free survival of patients classed as partial responders: more than 6 months
[3]; first partial responder at AZD5069 160 mg BD
  radiologic progression-free survival: 8 months
[3]; [4]
  PSA fall: 84%
  decrease in nodal disease: 20%
[3]; first partial responder at AZD5069 160 mg BD, at nadir, from 344 ng ml^−1
  PSA on treatment: 55 ng/mL
[3]; [5]
  duration of CTC conversion: seven
  time on trial: 16 months
[3]; partial responder at AZD5069 80 mg BD, at cycle 2, baseline 9
  CTC count: 1 per 7.5 ml of blood
[3]; [6]
  duration of radiologic and clinical responses: 11 months
  reduction of measurable disease: 31%
[3]; partial responder at AZD5069 120 mg BD, after 5 cycles
  PSA fall: 89%
[3]; partial responder at AZD5069 120 mg BD, after 5 cycles, from 98 ng ml^−1
  PSA on treatment: 11 ng/mL
[3]; partial responder at AZD5069 320 mg BD
  time to new bone metastases: 8 months
[3]; partial responder at AZD5069 320 mg BD, after four cycles
  PSA reduction: 64%
[3]; partial responder at AZD5069 320 mg BD, after four cycles, from 129 ng ml^−1
  PSA on treatment: 47 ng/mL
[3]; [7]
  PSA change: no PSA decrease
  radiologic progression-free survival: 8 months
[3]; second responder at AZD5069 160 mg BD, during cycle 1, baseline 11
  CTC count, peak: 39 per 7.5 ml of blood
[3]; second responder at AZD5069 160 mg BD, during cycle 4
  CTC count: 0 per 7.5 ml of blood

Reference: publication PMC10686834, “Targeting myeloid chemotaxis to reverse prostate cancer therapy resistance” (Nature, 2023)
